According to paper PMC3111455, “Matrix Metalloproteinase-8 Mediates the Unfavorable Systemic Impact of Local Irradiation on Pharmacokinetics of Anti-Cancer Drug 5-Fluorouracil” (PLoS ONE, 2011):
Read-outs that look alike come from different tables or passages of the source.

What was measured:
[1] = Bile pharmacokinetics of 5-FU in rats after whole pelvic irradiation; format: in vivo, Sprague-Dawley rats; conditions: for AUC / Cmax / MRT / clearance / half-life / Vd: Sprague-Dawley, rat, iv, 100 mg/kg, 5-FU 100 mg/kg i.v.; for Vd: read-out: Vss
[2] = Plasma pharmacokinetics of 5-FU in rats after whole pelvic irradiation; format: in vivo, Sprague-Dawley rats; conditions: for AUC / Cmax / MRT / clearance / half-life / Vd: Sprague-Dawley, rat, iv, 100 mg/kg, 5-FU 100 mg/kg i.v.; for Vd: read-out: Vss
Procedure: The rats were anesthetized with urethane 1 g/ml and α-chloralose 0.1 g/ml (1 ml/kg by intraperitoneal injection), and were immobilized on a board when undergoing computed tomography for simulation of the whole pelvic field. The cranial margin was set at the top of the bilateral iliac crests for the whole pelvic field (Fig. 7). Conventional radiotherapy was used to deliver the radiation dose via the anterior-posterior (AP) and PA portals. The experimental animals were randomized to the control, 2-Gy alone, 5-FU alone, 0.5-Gy followed by 5-FU, and 2-Gy followed by 5-FU groups. Each group's data was collected from six rats.
(§1) Twenty hours after RT, the rats were administered 100 mg/kg of 5-FU in 2 mL of normal saline by intravenous infusion into the femoral vein over a 2-min period. A 150-µL blood sample was withdrawn from the jugular vein with a fraction collector according to a programmed schedule at 5, 15, 30, 45, and 60 min, and 1.5, 2, 2.5, and 3 h following drug administration. The blood samples were immediately centrifuged at 3300×g for 10 min. The resulting plasma (50 µL) was added to 1 mL of ethyl acetate in a clean tube, vortexed for 5 min, and centrifuged at 5900×g for 10 min. After centrifugation, the upper organic layer containing the ethyl acetate was transferred to a new tube and evaporated to dryness under flowing nitrogen. The dried residue was reconstituted with 50 µL of Milli-Q water (Millipore). A 20-µL aliquot of the solution was injected to the high performance liquid chromatography-ultraviolet (HPLC-UV) detection system.
(§2) Chromatographic analysis was performed on a Model LC-20AT HPLC system (Shimadzu, Tokyo, Japan) equipped with a Model SPD-20A wavelength UV detector, SIL-20AC autosampler, and an LC Solution data processing system. A LiChroCART RP-18e column (Purospher, 250 mm, 5 µm, Merck, Darmstadt, Germany) with a LiChroCART 4-4 guard column was used for separation. The mobile phase comprised […] potassium phosphate-methanol (99∶1, v/v, pH 4.5 adjusted by 85% phosphoric acid), and the flow rate of the mobile phase was 1 ml/min. The detection wavelength was set at 266 nm. Under these conditions, the retention time of 5-FU was 5.4 min. […] Good linearity was achieved over the range of 0.01–5 µg/ml, with all coefficients of correlation greater than 0.998. All samples were freshly prepared, including the standard solutions, from the same stock solution (5 mg/mL). The 0.01-µg/mL limit of quantification was defined the lowest concentration on the calibration curve that could be measured routinely with acceptable bias and relative SD. The overall mean precision, defined by the relative SD, ranged from 0.2% to 11.0%. Analytical accuracy was expressed as the percentage difference of the mean observed values compared to known concentrations varying from −10.0% to 14.0%. The recovery results for concentrations of 0.1–10 µg/mL were 92.0%–94.0%
(§3) Pharmacokinetic parameters including the AUC for concentration versus time, terminal elimination phase t1/2, Cmax, MRT, total plasma clearance and Vss were calculated using the pharmacokinetics calculation software WinNonlin Standard Edition, Version 1.1 (Scientific Consulting, Apex, NC, USA) using a compartmental method.

[3] = parameters: method as in PMID 9188061; conditions: rats, mean ± SD, cited from earlier work
[4] = tested on: alanine aminotransferase (ALT); experiment: Evaluation of hepatic function (plasma ALT); format: in vivo; conditions: rats
Procedure: The plasma levels of alanine aminotransferase (ALT) were measured to check the influence of different modalities for hepatic function by a standard colorimetric method using a Synchron LX20 spectrophotometer (Beckman Coulter) and manufacturer-supplied reagents.

[5] = Plasma pharmacokinetics of 5-FU in rats with or without MMP-8 inhibitor before whole pelvic irradiation 2 Gy; format: in vivo, Sprague-Dawley rats; conditions: for AUC / Cmax / MRT / clearance / half-life / Vd: Sprague-Dawley, rat, iv, 100 mg/kg, 5-FU 100 mg/kg i.v.; for Vd: read-out: Vss
Procedure: as §1, §2
MMP-8 inhibitor I (Calbiochem, La Jolla, CA) was administered to the rats to examine whether or not RT modulation of 5-FU pharmacokinetic parameters could be blocked. Briefly, MMP-8 inhibitor I was dissolved in PEG400/ethanol [4∶1 (v/v)] solution, yielding a final concentrations of 5 mg/mL. Two hours before irradiation, 10 mg/kg of MMP-8 inhibitor I was infused into the rat's tail vein over a 2-min period. After that, the rats were anesthetized with urethane 1 g/ml and α-chloralose 0.1 g/ml (1 ml/ kg by intraperitoneal injection), and were immobilized on a board to undergo computed tomography for simulation of the whole pelvic field and received irradiation, as described previously. The experimental animals were randomized to control without PEG400/ethanol [4∶1 (v/v)] solution (0 Gy), control with solvent (0 Gy), whole pelvic irradiation (2 Gy) with solvent and whole pelvic irradiation (2 Gy) with MMP-8 inhibitor and solvent groups, respectively. After RT sham RT 20 hrs, all rats received 5-FU (100 mg/kg) injections and the pharmacokinetic parameters of 5-FU were analyzed. Each group's data was collected from four rats.
as §3

[6] = cited from earlier work
HepG2 [7] = experiment: Viability/toxicity of 5-FU-treated HepG2 with or without recombinant MMP-8; format: cell-based, Human; conditions: 5-FU-treated with or without recombinant MMP-8, data not shown
HepG2 [8] = experiment: Intracellular 5-FU levels with or without recombinant MMP-8 by HPLC; format: cell-based, Human; conditions: 10 µg/mL recombinant MMP-8 plus 50 µM 5-FU vs 50 µM 5-FU alone, up to 60 min
Procedure: as §2, with “92.0%–94.0% […]” for “92.0%–94.0%”

[9] = whole pelvic irradiation 0.5 Gy
[10] = plasma, controls without solvent
[11] = plasma, whole pelvic irradiation 2 Gy with solvent
[12] = plasma, plasma, whole pelvic irradiation 2 Gy with solvent and MMP-8 inhibitor (10 mg/kg, 2 h before irradiation)
[13] = MMP-8 inhibitor 10 mg/kg 2 h before 2 Gy

O=c1[nH]cc(F)c(=O)[nH]1 [5-FU, 5-fluorouracil]
increase of the AUC of 5-FU in bile by pelvic irradiation ([1]; 0.5 Gy vs non-irradiated controls): 25.1%
increase of the AUC of 5-FU in bile by pelvic irradiation ([1]; 2 Gy vs non-irradiated controls): 30.6%
AUC ([1]; controls 0 Gy): 19700 ng·h/mL
Cmax ([1]; controls 0 Gy): 129 ± 22 µg/mL
MRT ([1]; controls 0 Gy): 8.9 min
clearance ([1]; controls 0 Gy): 84.8 ± 3.6 mL/min/kg
half-life ([1]; controls 0 Gy): 9.2 ± 0.4 min
Vd ([1]; controls 0 Gy): 0.754 ± 0.102 L/kg
AUC [1, 9]: 24600 ng·h/mL
Cmax [1, 9]: 120 ± 14 µg/mL
MRT [1, 9]: 11.1 min
clearance [1, 9]: 67.9 ± 3.6 mL/min/kg
half-life [1, 9]: 10.3 ± 0.5 min
Vd [1, 9]: 0.753 ± 0.025 L/kg
AUC ([1]; whole pelvic irradiation 2 Gy): 25700 ng·h/mL
Cmax ([1]; whole pelvic irradiation 2 Gy): 93 ± 6 µg/mL
MRT ([1]; whole pelvic irradiation 2 Gy): 13.9 min
clearance ([1]; whole pelvic irradiation 2 Gy): 65.1 ± 4.3 mL/min/kg
half-life ([1]; whole pelvic irradiation 2 Gy): 12.9 ± 2.8 min
Vd ([1]; whole pelvic irradiation 2 Gy): 0.903 ± 0.055 L/kg
reduction of the AUC of 5-FU by pelvic irradiation ([2]; 0.5 Gy vs non-irradiated controls, P = 0.019): 17.6%
reduction of the AUC of 5-FU by pelvic irradiation ([2]; 2 Gy vs non-irradiated controls, P = 0.008): 21.5%
AUC ([2]; controls 0 Gy): 78800 ng·h/mL
Cmax ([2]; controls 0 Gy): 164 ± 36 µg/mL
MRT ([2]; controls 0 Gy): 36.5 min
clearance ([2]; controls 0 Gy): 21.3 ± 1.9 mL/min/kg
half-life ([2]; controls 0 Gy): 34.7 ± 9.6 min
Vd ([2]; controls 0 Gy): 0.778 ± 0.088 L/kg
AUC [2, 9]: 64900 ng·h/mL
Cmax [2, 9]: 167 ± 23 µg/mL
MRT [2, 9]: 30.9 min
clearance [2, 9]: 25.8 ± 2 mL/min/kg
half-life [2, 9]: 24.7 ± 3.5 min
Vd [2, 9]: 0.775 ± 0.116 L/kg
AUC ([2]; whole pelvic irradiation 2 Gy): 61900 ng·h/mL
Cmax ([2]; whole pelvic irradiation 2 Gy): 179 ± 19 µg/mL
MRT ([2]; whole pelvic irradiation 2 Gy): 25 min
clearance ([2]; whole pelvic irradiation 2 Gy): 27.3 ± 3.6 mL/min/kg
half-life ([2]; whole pelvic irradiation 2 Gy): 29.9 ± 7.1 min
Vd ([2]; whole pelvic irradiation 2 Gy): 0.67 ± 0.06 L/kg
dose-normalized area under the curve (AUC) ([3]; 10 mg/kg): 0.43 ± 0.11 mg·h/L/mg
dose-normalized area under the curve (AUC) ([3]; 50 mg/kg): 0.50 ± 0.16 mg·h/L/mg
dose-normalized area under the curve (AUC) ([3]; 100 mg/kg): 1.14 ± 0.55 mg·h/L/mg
alanine aminotransferase (ALT) levels vs control group ([4]; 0.5 Gy followed by 5-FU): no significant difference
alanine aminotransferase (ALT) levels vs control group ([4]; 2 Gy followed by 5-FU): no significant difference
alanine aminotransferase (ALT) levels vs control group ([4]; 5-FU-treated only): no significant difference
AUC ([5]; plasma, controls with solvent): 71400 ng·h/mL
Cmax ([5]; plasma, controls with solvent): 146 ± 35 µg/mL
MRT ([5]; plasma, controls with solvent): 36 min
clearance ([5]; plasma, controls with solvent): 23.4 ± 0.8 mL/min/kg
half-life ([5]; plasma, controls with solvent): 27.8 ± 3 min
AUC [5, 10]: 71400 ng·h/mL
Cmax [5, 10]: 151 ± 17 µg/mL
MRT [5, 10]: 37 min
clearance [5, 10]: 23.4 ± 1.1 mL/min/kg
half-life [5, 10]: 33.3 ± 16.1 min
AUC [5, 11]: 55100 ng·h/mL
Cmax [5, 11]: 132 ± 51 µg/mL
MRT [5, 11]: 26 min
clearance [5, 11]: 30.3 ± 0.3 mL/min/kg
half-life [5, 11]: 31 ± 8.8 min
Vd ([5]; plasma, plasma, controls with solvent): 0.836 ± 0.097 L/kg
Vd ([5]; plasma, plasma, controls without solvent): 0.859 ± 0.022 L/kg
AUC [5, 12]: 66000 ng·h/mL
Cmax [5, 12]: 122 ± 29 µg/mL
MRT [5, 12]: 36 min
clearance [5, 12]: 25.4 ± 2.8 mL/min/kg
half-life [5, 12]: 32.3 ± 9.9 min
Vd [5, 12]: 0.911 ± 0.127 L/kg
Vd ([5]; plasma, plasma, whole pelvic irradiation 2 Gy with solvent): 0.784 ± 0.11 L/kg
fraction catabolyzed by the liver via the dihydropyrimidine dehydrogenase (DPD) pathway [6]: About 80%

COc1ccc(S(=O)(=O)N2Cc3ccccc3C[C@@H]2C(=O)NO)cc1 [MMP-8 inhibitor]
effect on the decreased MRT of 5-FU caused by irradiation [5, 13]: completely reversed
effect on the increased clearance value of 5-FU caused by irradiation [5, 13]: completely reversed
effect of pretreatment on the decline in AUC of 5-FU caused by pelvic irradiation ([5]; MMP-8 inhibitor 10 mg/kg 2 h before 2 Gy, P<0.05): significantly attenuated
effect of MMP-8 inhibitor alone on the AUC of 5-FU ([5]; plasma, in comparison with the controls): Neither the MMP-8 inhibitor alone nor its vehicle had a significant effect

recombinant MMP-8: recombinant matrix metalloproteinase-8, 10 µg/mL added to HepG2 cells
toxicity to HepG2 (HepG2 [7]): no significant toxicity
effect on the AUC of intracellular 5-FU (HepG2 [8]): no significant effect
